# Reference: US9540325B2, “N1-cyclic amine-N5-substituted phenyl biguanide derivatives, methods of preparing the same and pharmaceutical composition comprising the same” (Immunomet Therapeutics, Inc., priority 2011, dated 2017)
# How the values were obtained:
# AMPKα = assay: Measurement of AMPK activation effect (AMPKα Thr172 phosphorylation immunoassay) in MCF7 cells; type: cell-based, human; details: 24 hours; for AMPK activation effect at 50 μM (%) / AMPK activation effect at 10 μM (%): relative to untreated cells; for AMPK activation effect AC150: concentration at which AMPK activation reached 150%
# Experimental: MCF7 cells derived from human breast cancer cells (commercially available from the Korean Cell Line Bank) were used, and the AMPK activation effect of the biguanide derivative was confirmed using an AMPKα immunoassay kit (Invitrogen, Catalog No. KHO0651).
# MCF7 cells were cultured in a DMEM medium supplemented with 10% fetal bovine serum. Thereafter, the cultured MCF7 cells were put into a 6-well plate with approximately 5×10^5 cells per well and cultured in an incubator supplied with 5% CO2. Culture media were treated with the derivatives synthesized in the examples at contents of 5, 10 and 50 μM, and then cultured for 24 hours. Metformin hydrochloride was used as the control, and the culture media were treated with 0.05, 0.5, 1, 2, 5 and 10 mM metformin hydrochloride, and then tested in the same manner as described in the derivatives synthesized in the examples. Subsequently, the cells were lysed according to a method presented in the operation manual of the AMPKα immunoassay kit, and 20 μg of a cell lysate was then yielded through protein assay. Thereafter, the AMPK activation effect was obtained by determining the degree of phosphorylation of 172nd threonine residue (Thr172) of the AMPKα from the cell lysate according to the method presented in the operation manual of the AMPKα immunoassay kit. […] A curve graph showing AMPK activation according to the concentration of the treated compounds was plotted based on the obtained AMPKα activation results, the concentration (activation concentration 150, AC150) value of the compound whose AMPK activation reached 150% was calculated using a GraphPad Prism 5.0 program, and the degrees of AMPK activation were obtained when concentrations of the treated biguanide derivatives were 10 μM and 50 μM and the metformin hydrochloride was 50 μM
# HCT116 cells = assay: Measurement of effect of inhibiting cancer cell proliferation (MTT); type: cell-based, human; details: Homo sapiens; for inhibition at 100 µM: HCT-116, 100 μM, 48 hours, read-out: Cell Growth Inhibition (%) at 100 μM; for GI50: HCT-116, 48 h
# Excerpt: HCT116 cells derived from human colorectal cancer (commercially available from the Korean Cell Line Bank) were used, and the effect of inhibiting cancer cell proliferation of the biguanide derivative was confirmed by measuring the concentration value (cell growth inhibition concentration, GIC50) at which cell growth was inhibited by 50% using a 3-(4,5-dimethylthiazol-2-yl)-2,5-diphenyltetrazolium bromide (MTT) reagent.
# First, HCT116 cells were put on a 96-well plate and cultured in a DMEM medium containing 10% fetal bovine serum for 16 hours so that the cellcount in each well was approximately 5,000. Subsequently, to obtain the GIC50 value of each compound, culture media were treated with 100 μM, 25 μM, 6.25 μM, 1.56 μM or 0.39 μM of the compound, and then cultured for 48 hours. Metformin hydrochloride was used as the control, and the culture media were treated with 25, 12.5, 2.5, 0.5, 0.1 mM metformin hydrochloride, and then tested in the same manner as described in the derivatives synthesized in the examples. In order to determine whether the cells survived after treatment with the compounds, MTT was added to the culture media which were then cultured for another 3 hours. Formed formazane crystals were dissolved using dimethyl sulfoxide (DMSO), and the absorbance of the resulting solution was measured at 560 nm. After the 48-hour culture, […] was indicated as cell viability (%) according to each treated concentration. A cell viability curve graph was plotted and the concentration (GIC50) value of the compound at which the growth was inhibited by 50% was calculated to confirm the inhibition effect of cancer cell proliferation. Also, the cell growth viability (%) when the concentration of the treated biguanide derivative and the metformin hydrochloride as the control were 100 μM was shown.
Compound,melting point,AMPK activation effect at 50 μM (%) (AMPKα),AMPK activation effect AC150 (AMPKα),inhibition at 100 µM (HCT116 cells),GI50 (HCT116 cells),AMPK activation effect at 10 μM (%) (AMPKα)
"Cl.N=C(NC(=N)N1CCCCC1)Nc1cccc(F)c1 [Example 16, N1-piperidine-N5-(3-fluoro)phenyl biguanide hydrochloride]",201 to 202 °C,378%,9.9 µM,67.2%,72.4 µM,–
"CN1CCN(C(=N)NC(=N)Nc2ccc(OC(F)(F)F)cc2)CC1.Cl [Example 35, N1-(4-methyl)piperazine-N5-(4-trifluoromethoxy)phenyl biguanide hydrochloride]",258 to 259 °C,542%,5.0 µM,76.5%,46.7 µM,207%
"Cl.N=C(NC(=N)N1CCCCC1)Nc1ccc(Cl)cc1 [Example 18, N1-piperidine-N5-(4-chloro)phenyl biguanide hydrochloride]",275 to 276 °C,–,3.4 µM,97.7%,17 µM,281%
"CS(=O)(=O)Nc1cccc(NC(=N)NC(=N)N2CCCCC2)c1.Cl [Example 41, N1-piperidine-N5-(3-methylsulfonamide)phenyl biguanide hydrochloride]",251 to 253 °C,125%,>50 µM,18.8%,> 100 µM,86%
"Cl.N=C(NC(=N)N1CCCC1)Nc1ccc(Cl)cc1 [Example 17, N1-pyrrolidine-N5-(4-chloro)phenyl biguanide hydrochloride]",260 to 261 °C,512%,8.4 µM,97.4%,48.2 µM,167%
"Cl.N=C(NC(=N)N1CCCCC1)Nc1cc(F)cc(F)c1 [Example 60, N1-piperidine-N5-(3,5-difluoro)phenyl biguanide hydrochloride]",243 to 244 °C,576%,8.2 µM,97.6%,48.2 µM,144%
"Cl.N=C(NC(=N)N1CCC1)Nc1ccc(OC(F)(F)F)c(Cl)c1 [Example 55, N1-azetidine-N5-(3-chloro-4-trifluoromethoxy)phenyl biguanide hydrochloride]",254 to 255 °C,–,2.6 µM,101%,7.3 µM,342%
"Cl.N=C(NC(=N)N1CCCCC1)Nc1ccc(-c2nnn[nH]2)cc1 [Example 40, N1-piperidine-N5-(4-(1H-tetrazole-5-yl))phenyl biguanide hydrochloride]",241 to 242 °C,55%,>50 µM,0.9%,> 100 µM,41%
"Cl.N=C(NC(=N)N1CCCC1)Nc1cccc(OC(F)(F)F)c1 [Example 28, N1-pyrrolidine-N5-(3-trifluoromethoxy)phenyl biguanide hydrochloride]",261 to 262 °C,424%,6.9 µM,97.6%,19 µM,158%
"COc1cc(NC(=N)NC(=N)N2CCCCC2)cc(OC)c1.Cl [Example 45, N1-piperidine-N5-(3,5-dimethoxy)phenyl biguanide hydrochloride]",234 to 236 °C,249%,2.7 µM,41.3%,> 100 µM,232%
"Cl.N=C(NC(=N)N1CCCCC1)Nc1ccccc1 [Example 8, N1-piperidine-N5-phenyl biguanide hydrochloride]",204 to 206 °C,347%,10.1 µM,77.6%,56.8 µM,–
"Cl.N=C(NC(=N)N1CCC1)Nc1ccc(OC(F)(F)F)c(F)c1 [Example 52, N1-azetidine-N5-(3-fluoro-4-trifluoromethoxy)phenyl biguanide hydrochloride]",260 to 261 °C,740%,3.3 µM,101%,19.8 µM,265%
"Cl.N=C(NC(=N)N1CCCCC1)Nc1ccc(F)c(F)c1 [Example 59, N1-piperidine-N5-(3,4-difluoro)phenyl biguanide hydrochloride]",257 to 258 °C,1036%,3.6 µM,97.8%,28.1 µM,269%
"Cl.N=C(NC(=N)N1CCCCC1)Nc1ccc(Cl)cc1Cl [Example 62, N1-piperidine-N5-(2,4-dichloro)phenyl biguanide hydrochloride]",262 to 263 °C,–,5.6 µM,97.2%,11.6 µM,208%
"CN(C)c1ccc(NC(=N)NC(=N)N2CCCCC2)cc1.Cl [Example 37, N1-piperidine-N5-(4-dimethylamino)phenyl biguanide hydrochloride]",253 to 255 °C,286%,13.9 µM,32.2%,> 100 µM,123%
"Cl.N=C(NC(=N)N1CCCCC1)Nc1ccc(F)c(C(F)(F)F)c1 [Example 46, N1-piperidine-N5-(4-fluoro-3-trifluoromethyl)phenyl biguanide hydrochloride]",269 to 270 °C,–,1.3 µM,97%,5.6 µM,261%
"CC(=O)Nc1ccc(NC(=N)NC(=N)N2CCCCC2)cc1.Cl [Example 38, N1-piperidine-N5-(4-acetamide)phenyl biguanide hydrochloride]",258 to 260 °C,144%,>50 µM,0%,> 100 µM,94%
"Cl.N=C(NC(=N)N1CCCCC1)Nc1ccc(Cl)c(C(F)(F)F)c1 [Example 47, N1-piperidine-N5-(4-chloro-3-trifluoromethyl)phenyl biguanide hydrochloride]",269 to 270 °C,–,7.3 µM,96.7%,1.9 µM,169%
"Cl.N=C(NC(=N)N1CCCCC1)Nc1ccccc1F [Example 15, N1-piperidine-N5-(2-fluoro)phenyl biguanide hydrochloride]",155 to 157 °C,100%,>50 µM,39.5%,> 100 µM,–
"CCc1cccc(NC(=N)NC(=N)N2CCCCC2)c1.Cl [Example 10, N1-piperidine-N5-(3-ethyl)phenyl biguanide hydrochloride]",225 to 227 °C,598%,7.3 µM,97.4%,27.3 µM,178%
